Patent EP4775208A1, “USE OF PRMT5 INHIBITOR IN TREATMENT OF TUMORS OR CANCERS” (Apeiron Therapeutics (Hong Kong) Ltd., priority 2023, dated 2025)

Tests used:
[1] = test system: HCT-116 MTAP(-/-) deficient cells; assay: Inhibition of proliferation of HCT-116 MTAP(-/-) deficient cells (Cell-Titer Glo); format: cell-based; conditions: 8 days
Description: Test 1: Compound's inhibitory activity on proliferation of HCT-116 MTAP(-/-) deficient cells.
Materials and Cells: HCT-116 MTAP(-/-) deficient cells obtained from Kyinno Bio (China); RPMI-1640 medium, fetal bovine serum, and penicillin-streptomycin purchased from Thermo Fisher Scientific (America); 384-well plates from PerkinElmer (America); Cell-Titer Glo assay kit from Promega (America).
Cell Culture: HCT116 MTAP(-/-) deficient cells were cultured in RPMI 1640 medium containing 10% fetal bovine serum and 1% penicillin-streptomycin at 37°C, 5% CO2. Only cells in logarithmic growth phase were used for experiments.
(§1) Cell Proliferation Inhibition Assay: The compound's inhibitory activity on HCT-116 MTAP(-/-) deficient cells was assessed using the Cell-Titer Glo assay kit. Adjusting cell concentration, 40 µL was seeded into a 384-well plate and cultured overnight at 37°C, 5% CO2. Each well received 40 nL of the compound, achieving concentrations from 0 to 10,000 nM (starting concentration 10,000 nM, 3-fold dilution, 10 points), with 0.1% DMSO. The cell plate was incubated for 8 days at 37°C, 5% CO2. Cell-Titer Glo reagent (40 µL) was added to measure cell viability.

[2] = test system: HCT-116 MTAP wild-type cells; assay: Inhibition of proliferation of HCT-116 MTAP wild-type cells (Cell-Titer Glo); format: cell-based; conditions: 8 days
Description: Test 2: Compound's inhibitory activity on proliferation of HCT-116 MTAP wild-type cells.
Materials and Cells: HCT-116 MTAP wild-type cells obtained from Kyinno Bio (China); RPMI-1640 medium, fetal bovine serum, and penicillin-streptomycin purchased from Thermo Fisher Scientific (America); 384-well plates from PerkinElmer (America); Cell-Titer Glo assay kit from Promega (America).
Cell Culture: HCT116 MTAP wild-type cells were cultured in RPMI 1640 medium containing 10% fetal bovine serum and 1% penicillin-streptomycin at 37°C, 5% CO2. Only cells in logarithmic growth phase were used for experiments.
as §1, with “MTAP wild-type” for “MTAP(-/-) deficient”

Compound	IC50 ([1]; Homo sapiens, HCT-116, 192 h) [nM]	IC50 ([2]; Homo sapiens, HCT-116, 192 h) [nM]	IC50 [1] [nM]	IC50 [2] [nM]
CN(C(=O)c1ccc2nc(N)c3cncn3c2c1)[C@@H]1CCc2cc(C(F)(F)F)ncc21 [Example 23, (R)-4-amino-N-methy 1-N-(3-(trifluoromethy 1)-6,7-dihydro-5H-cyclopenta[c]pyridin-7-yl)imidazo[1,5-a]quinox aline-8-carboxamide]	120	> 10000		
CN(C(=O)c1ccc2nc(N)c3cncn3c2c1)[C@@H]1COc2cc(P(C)(C)=O)ccc21 [Example 20, (S)-4-amino-N-(6-(dimethylphosphoryl)-2,3-dihydrobenzofuran-3-yl)-N-methylimidaz o[1,5-a]quinoxaline-8-carboxamide]	> 3000	> 10000		
C[C@H]1OC[C@@H](N(C)C(=O)c2ccc3nc(N)c4cncn4c3c2)c2cnc(C(F)(F)F)cc21 [Example 32, 4-amino-N-methyl-N-((1R,4S)-1-methyl-7-(trifluoromethyl)-3,4-dihydro-1H-pyrano[4,3-c]pyridin-4-yl)imidazo[1,5-a]quinoxaline-8-carboxamide]	25.7	1410		
CN(C(=O)c1ccc2nc(N)c3cncn3c2c1)[C@@H]1COc2cc(S(C)(=O)=O)ccc21 [Example 28, (S)-4-amino-N-methy 1-N-(6-(methylsulfony 1)-2,3-dihydrobenzofuran-3-yl)imidazo[1,5-a]quinoxaline-8-carbo xamide]	321	> 10000		
CN(C(=O)c1ccc2nc(N)c3cnc(C4CC4)n3c2c1)[C@@H]1COc2cc(C(F)(F)F)ccc21 [Example 118, (S)-4-amino-1-cyclopro pyl-N-methyl-N-(6-(trifluoromethyl)-2,3-dihydrobenzofuran-3-yl)imida zo[1,5-a]quinoxaline-8-carboxamide]	2930	> 10000		
CC1OC[C@@H](N(C)C(=O)c2ccc3nc(N)c4cncn4c3c2)c2cccnc21 (stereo partly drawn) [Example 108, 4-amino-N-methyl-N-((5S)-8-methyl-5,8-di hydro-6H-pyrano[3,4-b]pyridin-5-yl)imidaz o[1,5-a]quinoxaline-8-carboxamide]	121	> 10000		
CN(C(=O)c1cc2c(cn1)nc(N)c1cncn12)[C@@H]1CCc2cc(C(F)(F)F)ncc21 [Example 24, (R)-4-amino-N-methy 1-N-(3-(trifluoromethy 1)-6,7-dihydro-5H-cyclopenta[c]pyridin-7-yl)imidazo[1,5-a]pyrido [3,4-e]pyrazine-8-carb oxamide]	148	> 10000		
C[C@@H]1OC[C@@H](N(C)C(=O)c2ccc3nc(N)c4cncn4c3c2)c2ccc(F)cc21 (single isomer, unassigned) [Example 95]	211	> 10000		
CC1OC[C@@H](N(C)C(=O)c2cc3c(cn2)nc(N)c2cncn23)c2ccc(F)cc21 (stereo partly drawn) [Example 62, 4-amino-N-((4S)-7-fluoro-1-methylisochroman-4-yl)-N-methyli midazo[1,5-a]pyrido[3,4-e]pyrazine-8-carb oxamide]	19.7	3710		
Cc1ncn2c1c(N)nc1ccc(C(=O)N(C3CC3)[C@H]3COc4cc(C(F)(F)F)ccc43)cc12 (single isomer, unassigned) [Example 85]	791	781		
C[C@@H]1OC[C@@H](N(C)C(=O)c2cc3c(cn2)nc(N)c2cncn23)c2ccc(C(F)(F)F)cc21 (single isomer, unassigned) [Example 97]	29.8	1550		
CN(C(=O)c1cc2c(cc1F)nc(N)c1cncn12)[C@H]1COC(C)(C)c2cc(C(F)(F)F)ccc21 (single isomer, unassigned) [Example 134]	623	5890		
CN(C(=O)c1ccc2nc(N)c3c(Br)ncn3c2c1)[C@@H]1COc2cc(C(F)(F)F)ccc21 [Example 127, (S)-4-amino-3-bromo-N-methyl-N-(6-(trifluoromethyl)-2,3-dihydrobenzofuran-3-yl)imidazo[1,5-a]quinoxaline-8-carboxamide]	100	9900		
CC1OC[C@@H](N(C)C(=O)c2ccc3nc(N)c4cncn4c3c2)c2ccc(F)cc21 (stereo partly drawn) [Example 9, 4-amino-N-((4S)-7-fluoro-1-methylisochroman-4-yl)-N-methyli midazo[1,5-a]quinoxa line-8-carboxamide]	41.1	2140		
CN(C(=O)c1ccc2nc(N)c3cncn3c2c1)[C@@H]1COc2cc(C(N)=O)ccc21 [Example 53, (S)4-amino-N-(6-carbamoyl-2,3-dihydrobenzofuran-3-yl)-N-met hylimidazo[1,5-a]quin oxaline-8-carboxamide]	> 3000	> 10000		
(S)-4-amino-N-methy 1-N-(6-(trifluoromethy 1)-2,3-dihydrofuro[2,3 -b]pyridin-3-yl)imida zo[1,5-a]quinoxaline-8-carboxamide [Example 90]			36.4	> 10000
CN(C(=O)c1cc2c(cc1Cl)nc(N)c1cncn12)[C@@H]1COc2cc(C(F)(F)F)ccc21 [Example 27, (S)-4-amino-7-chloro-N-methyl-N-(6-(trifluoromethyl)-2,3-dihydrobenzofuran-3-yl)imi dazo[1,5-a]quinoxaline-8-carboxamide]	4.4	842		
(R)-4-amino-N-methy 1-N-(6-(pentafluoro-16 -sulfaneyl)-2,3-dihydr obenzofuran-3-yl)imi dazo[1,5-a]quinoxalin e-8-carboxamide [Example 103]			931	6260
CN(C(=O)c1ccc2nc(N)c3cncn3c2c1)C1COCc2ccc(C(F)(F)F)cc21 (stereo not drawn) [Example 8, 4-amino-N-methyl-N-(6-(trifluoromethyl)isochroman-4-yl)imidaz o[1,5-a]quinoxaline-8-carboxamide]	106	6480		
CC1OC[C@@H](N(C)C(=O)c2ccc3nc(N)c4cncn4c3c2)c2cc(F)ccc21 (stereo partly drawn) [Example 77, 4-amino-N-((4S)-6-fluoro-1-methylisochroman-4-yl)-N-methylimidazo[1,5-a]quinoxaline-8-carboxamide]	101	4260		
CN(C(=O)c1ccc2nc(N)n3cncc3c2c1)[C@@H]1COc2cc(C(F)(F)F)ccc21 [Example 49, (S)-5-amino-N-methy 1-N-(6-(trifluoromethy 1)-2,3-dihydrobenzofuran-3-yl)imidazo[1,5-c]quinazoline-9-carbo xamide]	589	> 10000		
CN(C(=O)c1ccc2nc(N)c3c(CO)ncn3c2c1)[C@@H]1COc2cc(C(F)(F)F)ccc21 [Example 128, (S)-4-amino-3-(hydroxymethyl)-N-methyl-N-(6-(trifluoromethyl)-2,3-dihydrobenzofuran-3-yl)imidazo[1,5-a]quinoxaline-8-carboxamide]	26	> 10000		
C[C@@H]1OC[C@@H](N(C)C(=O)c2ccc3nc(N)c4cncn4c3c2)c2cc(F)ccc21 (single isomer, unassigned) [Example 99]	928	7130		
Nc1nc2ncc(C(=O)N(C3CC3)C3COc4cc(C(F)(F)F)ccc43)cc2n2cncc12 (stereo not drawn) [Example 126, 4-amino-N-cyclopropyl-N-(6-(trifluoromethyl)-2,3-dihydrobenzof uran-3-yl)imidazo[1,5-a]pyrido[2,3-e]pyrazine-8-carboxamide]	592	> 20000		
